Measured values as given in patent US11708348B2, “Protease inhibitors for treatment of coronavirus infections” (The Scripps Research Institute, priority 2021, dated 2023).

tested on: SARS-CoV-2 strain USA-WA1/2020; test: microbe, parasite or virus in culture; format: cell-based; details: HeLa-ACE2 cells, SARS-CoV-2 infection, 24 h; class symbols; read-out: EC50, uM (Hela)

Compound | EC50 [µM]
COc1cccc2[nH]c(C(=O)N[C@@H](CC(C)C)C(=O)N[C@@H](C[C@@H]3CCNC3=O)C(=O)COc3c(F)cccc3F)cc12 [Compound 2] | 0.5 to 1

same assay, conditions: Severe acute respiratory syndrome coronavirus 2, HeLa-ACE2, 24 h, HeLa-ACE2 cells, SARS-CoV-2 infection, 24 h; cells given as a bound; read-out: EC50, uM (Hela)

Compound | EC50 [µM]
CC(C)C[C@H](CC(=O)NCc1c(F)cccc1F)C(=O)N[C@@H](C[C@@H]1CCNC1=O)C(=O)COc1c(F)c(F)cc(F)c1F [Compound 55, (R)-N4-(2,6-difluorobenzyl)-2-isobutyl-N1-((S)-3-oxo-1-((S)-2-oxopyrrolidin-3-yl)-4-(2,3,5,6-tetrafluorophenoxy)butan-2-yl)succinamide] | > 1

same assay, conditions: Severe acute respiratory syndrome coronavirus 2, HeLa-ACE2, 24 h, HeLa-ACE2 cells, SARS-CoV-2 infection, 24 h; class symbols; read-out: EC50, uM (Hela)

Compound | EC50 [µM]
CC(C)C[C@H](NC(=O)C(=O)NCc1cc(Cl)ccc1Cl)C(=O)N[C@@H](C[C@@H]1CCNC1=O)C(=O)COc1c(F)c(F)cc(F)c1F [Compound 59, Nl-(2,5-dichlorobenzyl)-N2-((S)-4-methyl-1-oxo-1-(((S)-3-oxo-1-((S)-2-oxopyrrolidin-3-yl)-4-(2,3,5,6-tetrafluorophenoxy)butan-2-yl)amino)pentan-2-yl)oxalamide] | 0.2 to 0.5
COc1cccc(OC)c1NC(=O)C(=O)N[C@@H](CC(C)C)C(=O)N[C@@H](C[C@@H]1CCNC1=O)C(=O)COC(F)(F)F [Compound 164, N1-(2,6-dimethoxyphenyl)-N2-((S)-4-methyl-1-oxo-1-(((S)-3-oxo-1-((S)-2-oxopyrrolidin-3-yl)-4-(trifluoromethoxy)butan-2-yl)amino)pentan-2-yl)oxalamide] | < 0.05
COCC(C)(C)NC(=O)C(=O)N[C@@H](CC(C)C)C(=O)N[C@@H](C[C@@H]1CCNC1=O)C(=O)COC(F)(F)F [Compound 193, N1-(1-methoxy-2-methylpropan-2-yl)-N2-((S)-4-methyl-1-oxo-1-(((S)-3-oxo-1-((S)-2-oxopyrrolidin-3-yl)-4-(trifluoromethoxy)butan-2-yl)amino)pentan-2-yl)oxalamide] | < 0.05
CC(C)C[C@H](NC(=O)C(=O)Nc1ccccc1OC(F)F)C(=O)N[C@@H](C[C@@H]1CCNC1=O)C(=O)COc1c(F)c(F)cc(F)c1F [Compound 62, N1-(2-(difluoromethoxy)-phenyl)-N2-((S)-4-methyl-1-oxo-1-(((S)-3-oxo-1-((S)-2-oxopyrrolidin-3-yl)-4-(2,3,5,6-tetrafluorophenoxy)butan-2-yl)amino)pentan-2-yl)oxalamide] | < 0.05
CC(C)C[C@H](NC(=O)C(=O)Nc1ccc2ccccc2c1)C(=O)N[C@@H](C[C@@H]1CCNC1=O)C(=O)COc1c(F)c(F)cc(F)c1F [Compound 34, N1-((S)-4-methyl-1-oxo-1-(((S)-3-oxo-1-((S)-2-oxopyrrolidin-3-yl)-4-(2,3,5,6-tetrafluorophenoxy)butan-2-yl)amino)pentan-2-yl)-N2-(naphthalen-2-yl)oxalamide] | 0.05 to 0.2
CC(C)C[C@H](NC(=O)C(=O)Nc1cccc(F)c1)C(=O)N[C@@H](C[C@@H]1CCNC1=O)C(=O)COc1c(F)c(F)cc(F)c1F [Compound 43, N1-(3-fluorophenyl)-N2-((S)-4-methyl-1-oxo-1-(((S)-3-oxo-1-((S)-2-oxopyrrolidin-3-yl)-4-(2,3,5,6-tetrafluorophenoxy)butan-2-yl)amino)pentan-2-yl)oxalamide] | 0.05 to 0.2
CC1(C)[C@@H]2[C@@H](C(=O)N[C@@H](C[C@@H]3CCNC3=O)C(=O)COC(F)(F)F)N(C(=O)C34CC(C(F)(F)F)(CO3)C4)C[C@@H]21 [Compound 318, (1R,2S,5S)-6,6-dimethyl-N-((S)-3-oxo-1-((S)-2-oxopyrrolidin-3-yl)-4-(trifluoromethoxy)butan-2-yl)-3-(4-(trifluoromethyl)-2-oxabicyclo[2.1.1]-hexane-1-carbonyl)-3-azabicyclo[3.1.0]-hexane-2-carboxamide] | 0.05 to 0.2
CC(C)C[C@H](NC(=O)C(=O)NC1CCCCC1)C(=O)N[C@@H](C[C@@H]1CCNC1=O)C(=O)COc1c(F)c(F)cc(F)c1F [Compound 69, N1-cyclohexyl-N2-((S)-4-methyl-1-oxo-1-(((S)-3-oxo-1-((S)-2-oxopyrrolidin-3-yl)-4-(2,3,5,6-tetra-fluorophenoxy)butan-2-yl)amino)pentan-2-yl)oxalamide] | 0.05 to 0.2
CCc1ccccc1NC(=O)C(=O)N[C@@H](CC(C)C)C(=O)N[C@@H](C[C@@H]1CCNC1=O)C(=O)COc1c(F)c(F)cc(F)c1F [Compound 63, N1-(2-ethylphenyl)-N2-((S)-4-methyl-1-oxo-1-(((S)-3-oxo-1-((S)-2-oxopyrrolidin-3-yl)-4-(2,3,5,6-tetrafluorophenoxy)butan-2-yl)amino)pentan-2-yl)oxalamide] | < 0.05
CC12COC(C(=O)N3C[C@@H]4CCC[C@@H]4[C@H]3C(=O)N[C@@H](C[C@@H]3CCNC3=O)C(=O)COC(F)(F)F)(C1)C2 [Compound 312, (1S,3aR,6aS)-2-(4-methyl-2-oxabicyclo-[2.1.1]hexane-1-carbonyl)-N-((S)-3-oxo-1-((S)-2-oxopyrrolidin-3-yl)-4-(trifluoromethoxy)butan-2-yl)octahydrocyclo-penta[c]pyrrole-1-carboxamide] | 0.05 to 0.2

same assay, conditions: Severe acute respiratory syndrome coronavirus 2, HeLa-ACE2, 24 h, HeLa-ACE2 cells, SARS-CoV-2 infection, 24 h; given as bound; read-out: EC50, uM (Hela)

Compound | EC50 [µM]
CC(C)(C)NC(=O)C(=O)N1C[C@H]2C[C@]1(C(=O)N[C@@H](C[C@@H]1CCNC1=O)C(=O)COC(F)(F)F)C2 [Compound 560, (1s,4R)-2-(2-(tert-butylamino)-2-oxoacetyl)-N-((S)-3-oxo-1-((S)-2-oxopyrrolidin-3-yl)-4-(trifluoromethoxy)butan-2-yl)-2-azabicyclo-[2.1.1]hexane-1-carboxamide] | > 1
COC(=O)C(=O)N1C[C@@H]2CCC[C@@H]2[C@H]1C(=O)N[C@@H](C[C@@H]1CCNC1=O)C(=O)COC(F)(F)F [Compound 569, methyl 2-oxo-2-((1S,3aR,6aS)-1-(((S)-3-oxo-1-((S)-2-oxopyrrolidin-3-yl)-4-(trifluoromethoxy)butan-2-yl)carbamoyl)-hexahydrocyclo-penta[c]-pyrrol-2(1H)-yl)acetate] | > 1

same assay, conditions: Severe acute respiratory syndrome coronavirus 2, HeLa-ACE2, 24 h, HeLa-ACE2 cells, SARS-CoV-2 infection, 24 h; read-out: EC50, uM (Hela)

Compound | EC50 [µM]
O=C1NCC[C@H]1C[C@H](NC(=O)[C@@H]1CC2(CC2)CN1C(=O)C1(O)CCC(C(F)(F)F)CC1)C(=O)COC(F)(F)F (stereo partly drawn) [Compound 649, (S)-5-(l-hydroxy-4-(trifluoromethyl)cyclohexane-1-carbonyl)-N-((S)-3-oxo-1-((S)-2-oxopyrrolidin-3-yl)-4-(trifluoromethoxy)butan-2-yl)-5-azaspiro[2.4]heptane-6-carboxamide] | 0.05 to 0.2
CC(C)(C)NC(=O)C(=O)N1C[C@@H]2CC(F)(F)C[C@@H]2[C@H]1C(=O)N[C@@H](C[C@@H]1CCNC1=O)C(=O)COC(F)(F)F [Compound 520, (1S,3aR,6aS)-2-(2-(tert-butylamino)-2-oxoacetyl)-5,5-difluoro-N-((S)-3-oxo-1-((S)-2-oxopyrrolidin-3-yl)-4-(trifluoromethoxy)butan-2-yl)octahydrocyclo-penta[c]pyrrole-1-carboxamide] | 0.05 to 0.2
O=C1NCC[C@H]1C[C@H](NC(=O)[C@@H]1CC2(CC2)CN1C(=O)C(O)c1cccnc1)C(=O)COC(F)(F)F (stereo partly drawn) [Compound 419, (6S)-5-(2-hydroxy-2-(pyridin-3-yl)acetyl)-N-((S)-3-oxo-1-((S)-2-oxopyrrolidin-3-yl)-4-(trifluoromethoxy)butan-2-yl)-5-azaspiro[2.4]heptane-6-carboxamide] | 0.5 to 1
C[C@H](C(=O)N1C[C@H]2[C@@H]([C@H]1C(=O)N[C@@H](C[C@@H]1CCNC1=O)C(=O)COC(F)(F)F)C2(C)C)c1ccccc1 [Compound 629, (1R,2S,5S)-6,6-dimethyl-N-((S)-3-oxo-1-((S)-2-oxopyrrolidin-3-yl)-4-(trifluoromethoxy)butan-2-yl)-3-((S)-2-phenylpropanoyl)-3-azabicyclo[3.1.0]hexane-2-carboxamide] | < 0.05
O=C(Nc1ccccc1F)C(=O)N1C[C@@H]2CC[C@@H]2[C@H]1C(=O)N[C@@H](C[C@@H]1CCNC1=O)C(=O)COC(F)(F)F [Compound 563, (1S,2S, 5R)-3-(2-((2-fluorophenyl)amino)-2-oxoacetyl)-N-((S)-3-oxo-1-((S)-2-oxopyrrolidin-3-yl)-4-(trifluoromethoxy)butan-2-yl)-3-azabicyclo-[3.2.0]heptane-2-carboxamide] | 0.05 to 0.2
O=C1NCC[C@H]1C[C@H](NC(=O)[C@@H]1C[C@@H](c2ccccc2)CN1C(=O)[C@H](O)c1ccccc1)C(=O)COC(F)(F)F [Compound 786, (2S,4S)-1-((R)-2-hydroxy-2-phenylacetyl)-N-((S)-3-oxo-1-((S)-2-oxopyrrolidin-3-yl)-4-(trifluoromethoxy)butan-2-yl)-4-phenylpyrrolidine-2-carboxamide] | 0.05 to 0.2
O=C1NCC[C@H]1C[C@H](NC(=O)[C@@H]1[C@H]2CCC[C@H]2CN1C(=O)[C@H](O)c1ccccc1F)C(=O)COC(F)(F)F [Compound 409, (1S,3aR,6aS)-2-((R)-2-(2-fluorophenyl)-2-hydroxyacetyl)-N-((S)-3-oxo-1-((S)-2-oxopyrrolidin-3-yl)-4-(trifluoromethoxy)butan-2-yl)octahydrocyclo-penta[c]pyrrole-1-carboxamide] | < 0.05

same assay, conditions: Severe acute respiratory syndrome coronavirus 2, HeLa-ACE2, 24 h; read-out: EC50, uM (Hela)

Compound | EC50 [µM]
CC(C)C[C@@H](OC(=O)Cc1ccccc1)C(=O)N1CC2(CC2)C[C@H]1C(=O)N[C@@H](C[C@@H]1CCNC1=O)C(=O)COC(F)(F)F [Compound 632, (R)-4-methyl-1-oxo-1-((S)-6-(((S)-3-oxo-l-((S)-2-oxopyrrolidin-3-yl)-4-(trifluoromethoxy)butan-2-yl)carbamoyl)-5-azaspiro[2.4]heptan-5-yl)pentan-2-yl 2-phenylacetate] | < 0.05
